Results on five compounds are retold here after paper PMC2361176, “Inhibitory effects of retinoic acid metabolism blocking agents (RAMBAs) on the growth of human prostate cancer cells and LNCaP prostate tumour xenografts in SCID mice” (British Journal of Cancer, 2006).

The structures appear in SMILES notation. “Also recorded” adds a separate entry of the source.

A word on the IC50: it is the concentration at which inhibition is half-maximal.

In test [1] the test system is LNCaP tumour xenographs. The experiment in a line: In vivo antitumour study, LNCaP human prostate carcinoma xenograft. Also on record: species or system male SCID mice. To be noted: 0.033 mmol kg−1 once daily; for reduction in tumour growth compared to control: 6 weeks, P<0.05. As for the experimental part:
All animal studies were performed according to the guidelines and approval of the Animal Care Committee of the University of Maryland School of Medicine, and were consistent with United Kingdom Coordinating Committee on Cancer Research guidelines for the welfare of animals in experimental neoplasia. The procedure was modified from [Grigoryev et al (1999)]. Briefly, LNCaP cells were trypsinised, counted, and suspended in Matrigel (2 × 10^7 cells ml^−1) (Fisher Scientific International, Inc., Hampton, NH, USA). Male SCID mice of 4–6 weeks of age were obtained from the National Cancer Institute (Frederick, MD, USA). Each mouse was inoculated s.c. with 0.1 ml of the cell suspension at two sites in the flank. The size of the tumours was determined by measuring the tumour volumes using calipers. Tumour volumes were calculated using the formula V=4/3 × π × r1^2 × r2(r1<r2). The tumours were allowed to develop to approximately 100 mm^3 before treatment. […] Tumour volumes were measured twice weekly and weights of animals were taken weekly after the initiation of treatment. The mice were subjected to 6 weeks of treatment. The mice were then killed and the tumours were excised, weighed, and stored at −80°C until analysis. Additionally, the plasma was collected with 50 IU of heparin and stored at −80°C until analysis.
For orientation: Xenograft models place foreign cells or tissue in a host animal.

For test [2], the system named is Bcl-2. The experiment in a line: Western-blot analysis of Bcl-2 in LNCaP cells. To be noted: data not shown. It counts as cell-based, human. As for the experimental part:
The Western-blot protocol described for cytokeratins 8/18 was followed with some exceptions. Cell lysates (50 μg) were separated on a 15% SDS–PAGE gel. All washing was performed using TBS containing 1% Tween 20 (TBS-T). Blocking was performed using 5% milk in TBS-T. Incubations were performed using rabbit monoclonal IgG antibody to Bad and Bcl-2 (1 : 1000), as well as horseradish peroxidase-linked anti-rabbit IgG antibodies (1 : 2000) (Cell Signaling Technology, Beverly, MA, USA).

Test [3] concerns LNCaP cells. The experiment in a line: Cell-cycle analysis (propidium iodide, FACScan). It counts as cell-based, human. Particulars: 5 μM, 6 days; for Sub-G1 (%): apoptotic cells, control 9.02; for G2/M (%): control 2.20; for S (%): control 15.01; for G0/G1 (%): control 82.78. As for the experimental part:
LNCaP cells were treated with 1 or 5 μM of ATRA or each of the RAMBAs for 6 days. The cells were trypsinised and washed twice in PBS (Life Technologies, Grand Island, NY, USA). The cells were fixed by adding 70% ethanol and stored at −20°C until staining. The cells were washed twice in PBS. A volume of 1 ml of a propidium iodide (PI) solution (50 μg ml^−1 in PBS) and 500 μl of an RNase stock solution (100 μg ml^−1) were added to the cells and incubated for 1 h in the dark. Approximately 10^4 stained cells were then analysed by flow cytometry (Becton Dickenson FACScan, Franklin Lakes, NJ, USA). The percentages of cells in G0/G1, S, and G2/M phases of the cell cycle as well as percentage of apoptotic cells (sub G0/G1) were determined using MODFIT LT software (Verity Software House, San Jose, CA, USA). The percentages of cells in G0/G1, S, and G2/M phases of the cell cycle were obtained from diploid cells in the sample and the percentage of apoptotic cells (sub G0/G1) was obtained from total cells minus the debris.

Test [4] has as its system LNCaP cells. The experiment in a line: TUNEL assay of apoptosis in LNCaP cells. Format: cell-based, human. To be noted: 6 days; for induction of apoptosis (TUNEL): 1 or 5 μM; for percentage of apoptotic cells (TUNEL): 5 μM. The procedure: A total of 4000 LNCaP cells were plated on each well of an eight-well Lab-Tek II® chamber slide (Nalge Nunc International, Naperville, IL, USA). The LNCaP cells were then treated with either 1 or 5 μM of ATRA or RAMBA for 6 days. Cells were then fixed in 4% paraformaldehyde solution in dH2O. The cells were then processed and stained with FITC (fluorescein isothiocyanate) according to kit instructions (In situ cell death detection kit, AP, Roche Diagnostics Corp., Indianapolis, IN, USA). The FITC-stained cells are then mounted with VectorShield® mounting medium for fluorescence with DAPI (4′,6-diamidine-2′-phenylindole dihydrochloride) nuclear stain (Vector Laboratories, Inc., Burlingame, CA, USA) and covered with ApopTag® plastic coverslips (Intergen Company, Purchase, NY, USA). The slides were then examined under fluorescence microscopy (Eclipse E400, Nikon, Inc., Melville, NY, USA) and counted using SPOT Advance® 3.5 software (Diagnostic Instruments, Inc., Sterling Heights, MI, USA).

Test [5] addresses T1, CYP26 (Homo sapiens, UniProt O43174).
T1 construct: LNCaP cells were incubated with 1 μM ATRA for 24 h to induce the CYP26 enzyme; endogenous in cells; host or cells: LNCaP human prostate cancer cells, pre-treated with 1 μM ATRA
T1 sequence (O43174 1-497): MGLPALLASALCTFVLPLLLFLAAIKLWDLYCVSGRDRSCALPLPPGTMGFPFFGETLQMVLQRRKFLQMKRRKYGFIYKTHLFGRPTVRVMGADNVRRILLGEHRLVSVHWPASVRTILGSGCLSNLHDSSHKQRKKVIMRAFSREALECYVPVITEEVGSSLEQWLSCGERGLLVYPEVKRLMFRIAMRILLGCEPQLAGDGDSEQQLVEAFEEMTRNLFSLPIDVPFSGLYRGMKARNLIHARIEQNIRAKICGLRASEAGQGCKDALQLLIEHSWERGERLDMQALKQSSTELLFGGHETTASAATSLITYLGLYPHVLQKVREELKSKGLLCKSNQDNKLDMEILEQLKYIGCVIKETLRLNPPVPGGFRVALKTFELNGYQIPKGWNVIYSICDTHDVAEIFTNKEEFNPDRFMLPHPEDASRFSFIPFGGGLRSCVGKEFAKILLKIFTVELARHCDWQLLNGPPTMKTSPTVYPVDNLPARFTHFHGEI
The experiment in a line: Cellular CYP26 assay: inhibition of ATRA metabolism in intact LNCaP cells. Format: cell-based. Particulars: intact LNCaP cells pretreated with 1 μM ATRA; [11,12-3H]-ATRA substrate; HPLC. The procedure: Following ATRA treatment, the LNCaP cells were incubated with 0.1 or 0.8 μM [11,12-^3H]-ATRA (PerkinElmer Life and Analytical Sciences, Inc., Boston, MA, USA) for 5 h. Following the 5 h incubation, the medium was collected and the cells were trypsinised and collected.

On to `CC1=C(/C=C/C(C)=C/C=C/C(C)=C/C(=O)O)C(C)(C)CCC1` [ATRA, all-trans-retinoic acid, reference compound], for which, in test [1], the “tumour growth compared to vehicle control (in words)” value is “statistically significantly LNCaP tumour growth inhibition” and the “reduction in tumour growth compared to control” value (“reduction in tumour growth” for short) is recorded as 75%. Further, the “expression of Bcl-2” value in test [2] is reported as “concentration-dependent decrease”. Also, in test [3], the “Sub-G1 (%)” value worked out at 13.64%, the “G2/M (%)” value was determined as 12.42%, the “S (%)” value is recorded as 9.84% and the “G0/G1 (%)” value was found to be 77.74%. In addition, the “induction of apoptosis (TUNEL)” value in test [4] is “concentration-dependent induction of apoptosis”.
Turning to `CC1=C(/C=C/C(C)=C/C=C/C(C)=C/C(=O)O)C(C)(C)CCC1n1ccnc1` (stereo not shown) [VN/14-1], the “tumour growth compared to vehicle control (in words)” value in test [1] was “ineffective; also recorded: not significantly different”. In test [2], the “expression of Bcl-2” value is reported as “concentration-dependent decrease”. The IC50 in test [5] stood at 0.0065 ± 0.0015 µM. Besides, in test [3], the “Sub-G1 (%)” value worked out at 17.88%, the “G2/M (%)” value was 10.15%, the “S (%)” value worked out at 7.26% and the “G0/G1 (%)” value amounted to 82.59%. In test [4], the “percentage of apoptotic cells (TUNEL)” value was 17.03% and the “induction of apoptosis (TUNEL)” value is given as “concentration-dependent induction of apoptosis”.
With `CC1=C(/C=C/C(C)=C/C=C/C(C)=C/C(=O)n2ccnc2)C(C)(C)CCC1n1ccnc1` (stereo not shown) [VN/50-1], the “expression of Bcl-2” value in test [2] is “did not effect”. In addition, in test [5], the IC50 was determined as 0.09 ± 0.01 µM. In test [3], the “Sub-G1 (%)” value worked out at 17.67%, the “G2/M (%)” value worked out at 7.30%, the “S (%)” value was determined as 11.38% and the “G0/G1 (%)” value is 81.33%. For the same compound, in test [4], the “percentage of apoptotic cells (TUNEL)” value is on record as 17.03% and the “induction of apoptosis (TUNEL)” value is listed as “concentration-dependent induction of apoptosis”.
`CC1=C(/C=C/C(C)=C/C=C/C(C)=C/C(=O)Nc2ccc(O)cc2)C(C)(C)CCC1n1ccnc1` (stereo not shown) [VN/66-1]: in test [1], the “tumour growth compared to vehicle control (in words)” value is “statistically significantly LNCaP tumour growth inhibition” and the “reduction in tumour growth” value is listed as 44%. Moreover, in test [2], the “expression of Bcl-2” value was “did not effect”. The concentration for half-maximal inhibition (IC50) in test [5] came out at 0.0625 ± 0.0125 µM. Further, in test [3], the “Sub-G1 (%)” value came out at 14.49%, the “G2/M (%)” value is listed as 5.07%, the “S (%)” value came out at 11.14% and the “G0/G1 (%)” value was 83.80%. Further, the “induction of apoptosis (TUNEL)” value in test [4] is “concentration-dependent induction of apoptosis”.
As for `CC1=C(/C=C/C(C)=C/C=C/C(C)=C\C(=O)Nc2ccc(O)cc2)C(C)(C)CCC1n1ccnc1` (stereo not shown) [VN/69-1], in test [1], the “tumour growth compared to vehicle control (in words)” value is “statistically significantly LNCaP tumour growth inhibition” and the “reduction in tumour growth” value amounted to 47%. Also, the “expression of Bcl-2” value in test [2] was “did not effect”. In test [5], the half-maximal inhibitory concentration (IC50) came to 0.09 ± 0.0125 µM. In addition, in test [3], the “Sub-G1 (%)” value stood at 13.39%, the “G2/M (%)” value amounted to 6.20%, the “S (%)” value was determined as 11.14% and the “G0/G1 (%)” value is given as 82.66%. Moreover, the “induction of apoptosis (TUNEL)” value in test [4] is “concentration-dependent induction of apoptosis”.
